Key:
[1] = test system: patients with psoriatic arthritis (PsA); assay: Phase II randomized, double-blind, placebo controlled, multicenter clinical study in psoriatic arthritis; conditions: for Subjects reporting a serious AE (SAE): 12 week study period
Procedure: A phase II, randomized, double-blind, placebo controlled, multicenter clinical study was performed in North America and Europe in patients with psoriatic arthritis (PsA). […] Mean duration of PsA was 7.8 years; mean tender joint count of 22, mean swollen joint count of 10 at baseline (Moll & Wright criteria). […] Stable doses of NSAIDs, corticosteroids (≦10 mg/day prednisone or equivalent), and methotrexate were allowed.

[2] = test system: adult patients with active PsA; assay: Phase III clinical study PALACE 1 in active psoriatic arthritis; assay type: in vivo, human; conditions: for Patients achieving remission, DAS28(CRP) less than 2.6: N=168; for Physician's global assessment of disease activity, % Change (percent improvement) / Subject's assessment of pain, % Change (percent improvement) / Subject's global assessment of disease activity, % Change (percent improvement): VAS; for Number of swollen joints, % Change (percent improvement): scale 0-76; for Number of tender joints, % Change (percent improvement): scale 0-78; for Proportion of patients with ACR 20 response / Proportion of patients with ACR 50 response / Proportion of patients with ACR 70 response: N = 168
Procedure: (§1) The safety and efficacy of apremilast was evaluated in three multi-center, randomized, double-blind, placebo-controlled trials (Studies PALACE 1, PALACE 2, and PALACE 3) of similar design. A total of 1493 adult patients with active PsA (≧3 swollen joints and ≧3 tender joints) despite prior or current treatment with disease-modifying antirheumatic drug (DMARD) therapy were randomized. […] One qualifying psoriatic skin lesion of at least 2 cm in diameter was required in PALACE 3. Previous treatment with a biologic, including TNF-blockers was allowed.
(§2) Across the 3 studies, patients were randomly assigned to placebo (n=496), apremilast 20 mg (n=500), or apremilast 30 mg (n=497) given orally twice daily. Patients were allowed to receive stable doses of concomitant methotrexate (MTX) (≦25 mg/week), sulfasalazine (SSZ) (≦2 g/day), leflunomide (LEF) (≦20 mg/day), low dose oral corticosteroids (equivalent to ≦10 mg of prednisone a day), and/or nonsteroidal anti-inflammatory drugs (NSAIDs) during the trial. Treatment assignments were stratified based on small-molecule DMARD use at baseline. The patients who were therapeutic failures of >3 agents for PsA (small molecules or biologics), or >1 biologic TNF blocker were excluded.
(§3) The primary endpoint was the percentage of patients achieving American College of Rheumatology (ACR) 20 response at Week 16. Placebo-controlled efficacy data were collected and analyzed through Week 24. Patients with each subtype of PsA were enrolled across the 3 studies, including symmetric polyarthritis (62.0%), asymmetric oligoarthritis (26.9%), distal interphalangeal (DIP) joint arthritis (6.2%), arthritis mutilans (2.7%), and predominant spondylitis (2.1%). The median duration of PsA disease was 5 years. Patients received concomitant therapy with at least one DMARD (65.2%), MTX (54.5%), SSZ (9.0%), LEF (7.4%), low dose oral corticosteroids (13.9%), and NSAIDs (70.7%). Prior treatment with small-molecule DMARDs only was reported in 76.4% of patients and prior treatment with biologic DMARDs was reported in 22.4% of patients.

[3] = test system: adult patients with active PsA; assay: Phase III clinical study PALACE 3 in active psoriatic arthritis (PASI-75); assay type: in vivo, human; conditions: patients with psoriatic involvement of at least three percent BSA
Procedure: as §1
as §2, with “Treatment assignments were stratified based on small-molecule DMARD use at baseline. The patients who were therapeutic failures of >3 agents for PsA (small molecules or biologics), or >1 biologic TNF blocker were excluded.” left out
The primary endpoint was the percentage of patients achieving American College of Rheumatology (ACR) 20 response at Week 16. Placebo-controlled efficacy data were collected and analyzed through Week 24. […]
Patients with psoriatic involvement of at least three percent body surface area (BSA) were evaluated for Psoriatic Area and Severity Index (PASI)-75 responses. […]

[4] = test system: adult patients with active PsA; assay: Phase III clinical studies PALACE 1-3, study not specified; assay type: in vivo, human
Procedure: as §1, §2, §3

CCOc1cc([C@@H](CS(C)(=O)=O)N2C(=O)c3cccc(NC(C)=O)c3C2=O)ccc1OC [apremilast, (+)-2-[1-(3-ethoxy-4-methoxyphenyl)-2-methylsulfonylethyl]-4-acetylaminoisoindoline-1,3-dione]
Discontinuations due to AEs ([1]; 20 mg BID): 9%
Discontinuations due to lack of efficacy ([1]; 20 mg BID): 7%
Subjects reporting a serious AE (SAE) ([1]; 20 mg BID): 4 subjects
Primary endpoint, ACR20 at 12 weeks ([1]; 20 mg BID): met
ACR20 at 24 weeks ([1]; 20 mg BID, evaluable subjects, 24 weeks): 40%
Discontinuations due to AEs ([1]; 40 mg QD): 6%
Discontinuations due to lack of efficacy ([1]; 40 mg QD): 0%
Subjects reporting a serious AE (SAE) ([1]; 40 mg QD): 0 subjects
Primary endpoint, ACR20 at 12 weeks ([1]; 40 mg QD): met
ACR20 at 24 weeks ([1]; 40 mg QD, evaluable subjects, 24 weeks): 39.1%
Subjects reporting an SAE in the extension ([1]; active-drug extension, weeks 12-24): 7 subjects
ACR20 at 24 weeks ([1]; placebo subjects switched to 20 mg BID in the extension): 35%
ACR20 at 24 weeks ([1]; placebo subjects switched to 40 mg QD in the extension): 40%
Deaths ([1]; whole study): no deaths
Proportion of HAQ-DI responders (≧0.3 change from baseline) compared to placebo ([2]; Week 16): greater proportion
Patients achieving remission, DAS28(CRP) less than 2.6 ([2]; Week 16, 30 mg BID with or without DMARDs): 13.1%
CRP, % Change (percent improvement) ([2]; Week 16, 30 mg BID ± DMARDs): 12.40%
HAQ-DI score, % Change (percent improvement) ([2]; Week 16, 30 mg BID ± DMARDs): 20.00%
Physician's global assessment of disease activity, % Change (percent improvement) ([2]; Week 16, 30 mg BID ± DMARDs): 42.31%
Subject's assessment of pain, % Change (percent improvement) ([2]; Week 16, 30 mg BID ± DMARDs): 26.00%
Subject's global assessment of disease activity, % Change (percent improvement) ([2]; Week 16, 30 mg BID ± DMARDs): 20.29%
Number of swollen joints, % Change (percent improvement) ([2]; Week 16, 30 mg BID ± DMARDs): 50.00%
Number of tender joints, % Change (percent improvement) ([2]; Week 16, 30 mg BID ± DMARDs): 43.17%
ACR 20 response rate ([2]; Week 16, apremilast alone (29/62 patients)): 46.8%
ACR 20 response rate ([2]; Week 16, biologic-naive patients, concomitant with DMARD (51/124 patients)): 41.1%
ACR 20 response rate ([2]; Week 16, concomitant with DMARD (35/106 patients)): 33.0%
ACR 20 response rate ([2]; Week 16, previously treated with small molecule and/or biologic DMARD (11/41 patients)): 26.8%
Proportion of patients with ACR 20 response ([2]; Week 16, ± DMARDs): 38.1%
Proportion of patients with ACR 50 response ([2]; Week 16, ± DMARDs): 16.1%
Proportion of patients with ACR 70 response ([2]; Week 16, ± DMARDs): 4.2%
ACR 20 response rate ([2]; Week 24, 30 mg BID for up to 24 weeks, independent of response at Week 16): 43.5%
Patients achieving remission, DAS28(CRP) less than 2.6 ([2]; Week 24, 30 mg BID with or without DMARDs): 19.0%
CRP, % Change (percent improvement) ([2]; Week 24, 30 mg BID ± DMARDs): 8.45%
HAQ-DI score, % Change (percent improvement) ([2]; Week 24, 30 mg BID ± DMARDs): 20.00%
Physician's global assessment of disease activity, % Change (percent improvement) ([2]; Week 24, 30 mg BID ± DMARDs): 35.90%
Subject's assessment of pain, % Change (percent improvement) ([2]; Week 24, 30 mg BID ± DMARDs): 27.67%
Subject's global assessment of disease activity, % Change (percent improvement) ([2]; Week 24, 30 mg BID ± DMARDs): 23.92%
Number of swollen joints, % Change (percent improvement) ([2]; Week 24, 30 mg BID ± DMARDs): 50.00%
Number of tender joints, % Change (percent improvement) ([2]; Week 24, 30 mg BID ± DMARDs): 44.83%
Proportion of patients with ACR 20 response ([2]; Week 24, ± DMARDs): 35.1%
Proportion of patients with ACR 50 response ([2]; Week 24, ± DMARDs): 19.0%
Proportion of patients with ACR 70 response ([2]; Week 24, ± DMARDs): 10.1%
Change in mean HAQ-DI score from baseline ([2]; baseline to Week 16, p=0.0017 vs placebo): −0.244
Proportion of patients achieving PASI-75 ([3]; Week 16, 30 BID): 22.2%
Proportion of patients achieving PASI-75 ([3]; Week 24, 30 BID): 25.6%
Mental Component Summary score (MCS), mean change from baseline ([4]; human, in vivo): No worsening
SF-36v2 physical functioning domain and physical component summary score, change from baseline compared to placebo ([4]; human, in vivo): greater improvement
Dactylitis and enthesitis ([4]; patients with pre-existing dactylitis or enthesitis): improvement

Source: patent US20140301980A1, “METHODS FOR THE TREATMENT OF PSORIATIC ARTHRITIS USING APREMILAST” (CELGENE CORPORATION, priority 2013, published 2014)
